Measurements from PMC11735596, “Sulfoquinovosyl diacylglycerol, a component of Holy Basil Ocimum tenuiflorum, inhibits the activity of the SARS-CoV-2 main protease and viral replication in vitro” (Journal of Natural Medicines, 2024).
Several values for one entry are separate records, joined by “and”; a condition that tells them apart may be missing. Identical values can stand only once.

Experiments:
in vitro = conditions: African green monkey
[1] = system: SARS-CoV-2 (WK-521 strain); test: Anti-SARS-CoV-2 assay in infected VeroE6/TMPRSS2 cells (tetrazolium dye method); conditions: for Protection of infected cells from virus-induced cell death (in words): MOI 0.002, 3 days
[2] = system: SARS-CoV-2 spike S1 and ACE2; design: method as in PMID 34677731; conditions: cited from earlier work

With CC/C=C\C/C=C\C/C=C\CCCCCCCC(=O)OC[C@H](CO[C@H]1O[C@H](CS(=O)(=O)O)[C@@H](O)[C@H](O)[C@H]1O)OC(=O)CCCCCCC/C=C\C/C=C\C/C=C\CC [Compound 1, 1,2-di-(9Z,12Z,15Z-octadecatrienoyl)-3-(6′-sulfo-α-D-quinovosyl)-sn-glycerol] the CC50 (in vitro) was > 100 µM, the “Protection of infected cells from virus-induced cell death (in words)” value (from here on “Protection of infected cells”) [1] was “dose-dependent protection” and the EC50 ([1]; read-out: EC50, suppression of SARS-CoV-2 replication, MOI 0.002, 3 days) was 51.2 µM and 51 µM. For the same molecule, the “Cytotoxicity (in words)” value (VeroE6/TMPRSS2 cells) was “did not show apparent cytotoxicity”.
In the case of CC/C=C\C/C=C\C/C=C\CCCCCCCC(=O)OC[C@H](CO[C@@H]1O[C@H](CO[C@H]2O[C@H](CO)[C@H](O)[C@H](O)[C@H]2O)[C@H](O)[C@H](O)[C@H]1O)OC(=O)CCCCCCC/C=C\C/C=C\C/C=C\CC [Compound 2, 1,2-di-(9Z,12Z,15Z-octadecatrienoyl)-3-O-(α-D-galactosyl-1-6-β-D-galactosyl)-sn-glycerol], the “Protection of infected cells” value [1] is reported as “inhibited cell death caused by SARS-CoV-2 in a concentration-dependent manner”.
For CC/C=C\C/C=C\C/C=C\CCCCCCCC(=O)OC [Compound 5, Methyl linolenate, reference compound], the “Protection of infected cells” value [1] was “inhibited cell death caused by SARS-CoV-2 in a concentration-dependent manner”.
For C=CCc1ccc(O)c(OC)c1 [eugenol], the “Effect on interaction between SARS-CoV-2 spike S1 and ACE2 (in words)” value [2] is listed as “inhibited the interaction between SARS-CoV-2 spike S1 and ACE2”.
